# pIC50: −log10 of the molar value.
# Biological target: human adenosine A2b receptor (Homo sapiens (Human), UniProt P29275)
# Assay: Cellular in vitro reporter gene test for A2b receptor activity (CHO-K1, CRE-luciferase, NECA stimulation)
# Type: cell-based
# Details: recombinant CHO-K1 cell line, CRE-luciferase reporter, antagonism of EC50 concentration of NECA; in some cases means of several determinations, rounded to two significant figures; read-out: A2b receptor IC50
# Method in brief: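 CHO-K1 cells with CRE-driven luciferase; antagonists co-incubated with NECA at its EC50, determined in a pre-experiment on each test day. Luciferase read by luminescence 3 h after NECA addition.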
# Chain of human adenosine A2b receptor (P29275 whole entry): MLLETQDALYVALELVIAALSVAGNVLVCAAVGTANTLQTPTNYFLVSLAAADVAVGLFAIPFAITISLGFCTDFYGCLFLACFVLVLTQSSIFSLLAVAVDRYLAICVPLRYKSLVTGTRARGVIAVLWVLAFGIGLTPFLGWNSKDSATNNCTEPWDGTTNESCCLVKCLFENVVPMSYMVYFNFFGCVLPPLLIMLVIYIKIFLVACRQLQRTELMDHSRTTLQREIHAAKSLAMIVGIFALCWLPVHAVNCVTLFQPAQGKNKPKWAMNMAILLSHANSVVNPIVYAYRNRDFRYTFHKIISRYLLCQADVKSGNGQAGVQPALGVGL
row,SMILES,pIC50
1,"CCn1c(=O)c2c(C)c(CN3CCNC3=O)sc2n(CC2CC2(F)F)c1=O (single isomer, unassigned; enantiomer 1) [Example 55, 1-[(2,2-Difluorocyclopropyl)methyl]-3-ethyl-5-methyl-6-[(2-oxoimidazolidin-1-yl)methyl]thieno[2,3-d]pyrimidine-2,4(1H,3H)-dione (Enantiomer 1)]",8.89
2,"CCn1c(=O)c2c(C)c(CN3CCNC3=O)sc2n(CC(C)OC)c1=O (single isomer, unassigned; enantiomer 1) [Example 63, 3-Ethyl-1-(2-methoxypropyl)-5-methyl-6-[(2-oxoimidazolidin-1-yl)methyl]thieno[2,3-d]pyrimidine-2,4(1H,3H)-dione (Enantiomer 1)]",7.41
3,"CCn1c(=O)c2c(C)c(CN3CCNC3=O)sc2n(CC2CCCO2)c1=O (single isomer, unassigned; enantiomer 1) [Example 69, 3-Ethyl-5-methyl-6-[(2-oxoimidazolidin-1-yl)methyl]-1-(tetrahydrofuran-2-ylmethyl)thieno[2,3-d]pyrimidine-2,4(1H,3H)-dione (Enantiomer 1)]",8.01
4,"CCn1c(=O)c2c(C)c(CN3CCNC3=O)sc2n(CC2CC2(F)F)c1=O (single isomer, unassigned; enantiomer 2) [Example 56, 1-[(2,2-Difluorocyclopropyl)methyl]-3-ethyl-5-methyl-6-[(2-oxoimidazolidin-1-yl)methyl]thieno[2,3-d]pyrimidine-2,4(1H,3H)-dione (Enantiomer 2)]",8.10
5,"CCn1c(=O)c2c(C)c(CN3CCNC3=O)sc2n(CC(C)OC)c1=O (single isomer, unassigned; enantiomer 2) [Example 64, 3-Ethyl-1-(2-methoxypropyl)-5-methyl-6-[(2-oxoimidazolidin-1-yl)methyl]thieno[2,3-d]pyrimidine-2,4(1H,3H)-dione (Enantiomer 2)]",7.07
6,"CCn1c(=O)c2c(C)c(CN3CCNC3=O)sc2n(CC2CCO2)c1=O (single isomer, unassigned; enantiomer 2) [Example 67, 3-Ethyl-5-methyl-1-(oxetan-2-ylmethyl)-6-[(2-oxoimidazolidin-1-yl)methyl]thieno[2,3-d]pyrimidine-2,4(1H,3H)-dione (Enantiomer 2)]",7.54
7,"CCn1c(=O)c2c(C)c(CN3CCNC3=O)sc2n(CC2CCCO2)c1=O (single isomer, unassigned; enantiomer 2) [Example 70, 3-Ethyl-5-methyl-6-[(2-oxoimidazolidin-1-yl)methyl]-1-(tetrahydrofuran-2-ylmethyl)thieno[2,3-d]pyrimidine-2,4(1H,3H)-dione (Enantiomer 2)]",7.68
8,"COCCn1c(=O)n(CCc2ccccc2)c(=O)c2c(C)c(CN3CCC3=O)sc21 [Example 1, 1-(2-Methoxyethyl)-5-methyl-6-[(2-oxoazetidin-1-yl)methyl]-3-(2-phenylethyl)thieno[2,3-d]pyrimidine-2,4(1H,3H)-dione]",8.01
9,"CCn1c(=O)c2c(C)c(CN3CCC3=O)sc2n(CCC(F)(F)F)c1=O [Example 2, 3-Ethyl-5-methyl-6-[(2-oxoazetidin-1-yl)methyl]-1-(3,3,3-trifluoropropyl)thieno[2,3-d]pyrimidine-2,4(1H,3H)-dione]",7.96
10,"CCn1c(=O)c2c(C)c(CN3CCCC3=O)sc2n(CCC(F)(F)F)c1=O [Example 4, 3-Ethyl-5-methyl-6-[(2-oxopyrrolidin-1-yl)methyl]-1-(3,3,3-trifluoropropyl)thieno[2,3-d]pyrimidine-2,4(1H,3H)-dione]",8.28
11,"COCCn1c(=O)n(CCc2ccccc2)c(=O)c2c(C(F)(F)F)c(CN3CCCC3=O)sc21 [Example 5, 1-(2-Methoxyethyl)-6-[(2-oxopyrrolidin-1-yl)methyl]-3-(2-phenylethyl)-5-(trifluoromethyl)thieno[2,3-d]pyrimidine-2,4(1H,3H)-dione]",8.08
12,"CCn1c(=O)c2c(C)c(CN3CC[C@@H](O)C3=O)sc2n(CCOC)c1=O [Example 7, 3-Ethyl-6-{[(3R)-3-hydroxy-2-oxopyrrolidin-1-yl]methyl}-1-(2-methoxyethyl)-5-methylthieno[2,3-d]pyrimidine-2,4(1H,3H)-dione]",7.48
13,"CCn1c(=O)c2c(C)c(CN3Cc4ccccc4C3=O)sc2n(CCC(F)(F)F)c1=O [Example 11, 3-Ethyl-5-methyl-6-[(1-oxo-1,3-dihydro-2H-isoindol-2-yl)methyl]-1-(3,3,3-trifluoropropyl)thieno[2,3-d]pyrimidine-2,4(1H,3H)-dione]",7.72
14,"CCn1c(=O)c2c(C)c(CN3CCCCC3=O)sc2n(CCC(F)(F)F)c1=O [Example 12, 3-Ethyl-5-methyl-6-[(2-oxopiperidin-1-yl)methyl]-1-(3,3,3-trifluoropropyl)thieno[2,3-d]pyrimidine-2,4(1H,3H)-dione]",7.92
15,"COCCn1c(=O)n(CCc2ccccc2)c(=O)c2c(C)c(CN3CCOCC3=O)sc21 [Example 13, 1-(2-Methoxyethyl)-5-methyl-6-[(3-oxomorpholin-4-yl)methyl]-3-(2-phenylethyl)thieno[2,3-d]pyrimidine-2,4(1H,3H)-dione]",7.77
16,"CCn1c(=O)c2c(C)c(CN3CCOCC3=O)sc2n(CCC(F)(F)F)c1=O [Example 14, 3-Ethyl-5-methyl-6-[(3-oxomorpholin-4-yl)methyl]-1-(3,3,3-trifluoropropyl)thieno[2,3-d]pyrimidine-2,4(1H,3H)-dione]",7.72
17,"COCCn1c(=O)n(CCc2ccccc2)c(=O)c2c(C)c(CN3CCCS3(=O)=O)sc21 [Example 15, 6-[(1,1-Dioxido-1,2-thiazolidin-2-yl)methyl]-1-(2-methoxyethyl)-5-methyl-3-(2-phenylethyl)thieno[2,3-d]pyrimidine-2,4(1H,3H)-dione]",8.51
18,"CCn1c(=O)c2c(C)c(CN3CCCS3(=O)=O)sc2n(CCC(F)(F)F)c1=O [Example 16, 6-[(1,1-Dioxido-1,2-thiazolidin-2-yl)methyl]-3-ethyl-5-methyl-1-(3,3,3-trifluoropropyl)thieno[2,3-d]pyrimidine-2,4(1H,3H)-dione]",8.57
19,"CCn1c(=O)c2c(C)c(CN3CCCS3(=O)=O)sc2n(CCOC)c1=O [Example 17, 6-[(1,1-Dioxido-1,2-thiazolidin-2-yl)methyl]-3-ethyl-1-(2-methoxyethyl)-5-methylthieno[2,3-d]pyrimidine-2,4(1H,3H)-dione]",7.80

# More lines, now with the values ahead:
row,pIC50,SMILES
1,6.64,"COCCn1c(=O)n(C(C)C(F)(F)F)c(=O)c2c(C)c(CN3CCNC3=O)sc21 (single isomer, unassigned) [Example 499, 1-(2-Methoxyethyl)-5-methyl-6-[(2-oxoimidazolidin-1-yl)methyl]-3-(1,1,1-trifluoropropan-2-yl)thieno[2,3-d]pyrimidine-2,4(1H,3H)-dione]"
2,7.41,"CCn1c(=O)c2c(C)c(C(C)N3CCNC3=O)sc2n(CCC(F)(F)F)c1=O (single isomer, unassigned) [Example 503, 3-Ethyl-5-methyl-6-[1-(2-oxoimidazolidin-1-yl)ethyl]-1-(3,3,3-trifluoropropyl)thieno[2,3-d]pyrimidine-2,4(1H,3H)-dione]"
3,5.70,"CCn1c(=O)c2c(C)c(C(C)N3CCNC3=O)sc2n(CCC(F)(F)F)c1=O (single isomer, unassigned) [Example 504, 3-Ethyl-5-methyl-6-[1-(2-oxoimidazolidin-1-yl)ethyl]-1-(3,3,3-trifluoropropyl)thieno[2,3-d]pyrimidine-2,4(1H,3H)-dione]"
4,7.33,"COCCn1c(=O)n(C(C)C(F)(F)F)c(=O)c2c(C)c(CN3CCNC3=NC#N)sc21 (single isomer, unassigned) [Example 510, [1-{[1-(2-Methoxyethyl)-5-methyl-2,4-dioxo-3-(1,1,1-trifluoropropan-2-yl)-1,2,3,4-tetrahydrothieno[2,3-d]pyrimidin-6-yl]methyl}imidazolidin-2-ylidene]cyanamide]"
5,6.96,"COCCn1c(=O)n(C(C)C(F)(F)F)c(=O)c2c(C)c(CN3CCNC3=NC#N)sc21 (single isomer, unassigned) [Example 511, [1-{[1-(2-Methoxyethyl)-5-methyl-2,4-dioxo-3-(1,1,1-trifluoropropan-2-yl)-1,2,3,4-tetrahydrothieno[2,3-d]pyrimidin-6-yl]methyl}imidazolidin-2-ylidene]cyanamide]"
6,7.49,"COCCn1c(=O)n(C(C)C(F)(F)F)c(=O)c2c(C)c(CN3CCNC3=NC(=O)OC)sc21 (single isomer, unassigned) [Example 514, Methyl [1-{[1-(2-methoxyethyl)-5-methyl-2,4-dioxo-3-(1,1,1-trifluoropropan-2-yl)-1,2,3,4-tetrahydrothieno[2,3-d]pyrimidin-6-yl]methyl}imidazolidin-2-ylidene]carbamate]"
7,7.62,"COCCn1c(=O)n(C(C)C(F)(F)F)c(=O)c2c(C)c(CN3CCNC3=NC(=O)OC)sc21 (single isomer, unassigned) [Example 515, Methyl [1-{[1-(2-methoxyethyl)-5-methyl-2,4-dioxo-3-(1,1,1-trifluoropropan-2-yl)-1,2,3,4-tetrahydrothieno[2,3-d]pyrimidin-6-yl]methyl}imidazolidin-2-ylidene]carbamate]"
8,7.44,"CCn1c(=O)c2c(C)c(CN3CCNC3=O)sc2n(CC2CCOC2)c1=O (single isomer, unassigned; enantiomer 1) [Example 74, 3-Ethyl-5-methyl-6-[(2-oxoimidazolidin-1-yl)methyl]-1-(tetrahydrofuran-3-ylmethyl)thieno[2,3-d]pyrimidine-2,4(1H,3H)-dione (Enantiomer 1)]"
9,7.40,"CCn1c(=O)c2c(C)c(CN3CCNC3=O)sc2n(CC2CCOC2)c1=O (single isomer, unassigned; enantiomer 2) [Example 75, 3-Ethyl-5-methyl-6-[(2-oxoimidazolidin-1-yl)methyl]-1-(tetrahydrofuran-3-ylmethyl)thieno[2,3-d]pyrimidine-2,4(1H,3H)-dione (Enantiomer 2)]"

# From patent US10428083B2, “Heterocyclylmethyl-thienouracile as antagonists of the adenosine-A2B-receptor” (BAYER PHARMA AKTIENGESELLSCHAFT, priority 2015, dated 2019)
